Patent US20220000964A1, “Compositions and Methods for Regulating Homeostasis of Chondrocytes, Extracellular Matrix, Articular Cartilage, and Phenotype of Arthritis” (Unigen, Inc., priority 2020, published 2022)
Where “and” joins values, the source holds several entries; their conditions need not be identical. Equal entries are not always repeated.

How the values were obtained:
[1] = system: Carrageenan-induced paw edema in rats; assay: Carrageenan-induced paw edema in rats, pain sensitivity (anti-pain); assay type: in vivo, rat
Description: (§1) Carrageenan-induced paw edema in rats was used to evaluate the anti-inflammatory and anti-pain activities of individual Alpinia, Pepper, Magnolia and Kochia extracts. Sprague Dawley (SD) rats (N=5 per group) were given Alpinia, Pepper, Magnolia and Kochia extracts at 300 mg/kg orally one hour […] intra-plantar injection of 100 μl carrageenan. Pain sensitivity and paw edema were monitored at T0 (before carrageenan) and 2, 4 and 6 hours after carrageenan. Ibuprofen as a positive control was used at 150 mg/kg.
(§2) Rats were gavaged with each constituent as they appeared in the 300 mg/kg of the AMK individually in order to determine whether the plant extracts acted synergistically. For the 2:4:3 ratio of AMK, rats were administered with 67 mg/kg of Alpinia extract, 133 mg/kg of Magnolia extract and 100 mg/kg of Kochia extract. The percent inhibition of pain and inflammation of the combined compositions at 300 mg/kg were compared with those dosages of individual extracts to find out potential additive, antagonistic or synergistic effects in combination using the Colby's equation.
(§3) The merit of combining Alpinia with Pepper for AP (1:2 ratio) was evaluated in the carrageenan rat paw edema model. Rats were gavaged with each constituent as they appeared in 300 mg/kg of the AP. For the 1:2 ratio of AP, 100 mg/kg of Alpinia and 200 mg/kg of Pepper extract were administered to the rats. The percent inhibition of pain and inflammation of the compositions at 300 mg/kg was compared with those dosages of individual extracts to find out potential additive, antagonistic or synergistic effects in combination using Colby's equation (Colby 1967). For the blending of these plant extracts to have unexpected synergy, the observed inhibition needed to be greater than the calculated value.

Sprague Dawley rats = assay: Hot plate test, topical application, paw withdrawal latency; assay type: in vivo, rat; conditions: for Paw withdrawal threshold (latency) Mean ± SD: in s (unit assumed); for increase in paw withdrawal latency as compared to vehicle: 5% concentration; for % Change: negative = increased paw withdrawal latency
Text: Repeated application of anti-inflammatory compounds or extracts topically at the site of thermal contact (noxious stimulus) may cause desensitization of the peripheral afferent pain receptors to produce a delay in response time. A longer change in reaction time could be interpreted as an anti-nociceptive effect of the applied compound. To evaluate whether prepared plant extracts and compositions could provide anti-nociceptive activity, rats received orally-active anti-inflammatory extracts formulated in 2% Aloe vera gel at 5% concentration topically on their hind paws. The applied preparations on each paw were massaged at least 60 times in a circular motion into the skin until the applied content appeared visually absorbed. The procedure was repeated 3 times, every 30 minutes, before placing the animals on a preheated hot plate set to 53° C. The paw withdrawal latency was calculated as the time elapsed from the initial placement of the rat onto the hotplate to the withdrawal (or licking or shaking) of the hind paw in response to the thermal stimulus. Animals were immediately removed when this response was observed.
The anti-pain activity of medicinal plant extracts was tested on a hot plate set at 53° C. Test materials at 5% concentrations were topically applied at 20 μl/paw to the hind paws of both right and left paws of Sprague Dawley rats (n=10 per group). Applications of these extracts were carried out every 30 minutes for a total of 90 minutes. Within these 90 minutes, rats received a total of 60 μl/paw of the test article per rat. At 5% concentration, each rat received 3 mg/paw of the test articles. Due to the solubility characteristics of the compounds, two types of vehicles, V1=Dimethyl sulfoxide (DMSO)+propylene glycol (PG)+Aloe (2%), and V2=DMSO+OIL+PG, were used. Percent changes and P-values for statistical significance were determined using respective vehicles for each test material. The vehicle used for each material has been indicated in the parenthesis next to the test material. […] These increases in anti-pain activity were statistically significant. […] This percent change was statistically significant when compared to its respective vehicle.

[2] = system: Carrageenan-induced paw edema in rats; assay: Carrageenan-induced paw edema in rats, paw edema (anti-inflammation); assay type: in vivo, rat
Description: as §1, §2, §3

[3] = system: rabbit cartilage explants; assay: Inhibition of glycosaminoglycan (GAG) release, rabbit cartilage explants stimulated with rhIL-1α; assay type: cell-based; conditions: for inhibition at 25 µg/mL: 25 μg/ml; for inhibition at 100 µg/mL: 100 μg/ml
Description: Articular cartilage from hock joints of rabbits (2.5 kg body weight) was removed immediately after each animal was sacrificed. The articular cartilage explants were obtained by following the method described by Sandy et al, 1986. Briefly, after the articular surfaces were exposed surgically under sterile conditions, approximately 200-220 mg articular surfaces per joint were dissected and submerged into complete medium (DMEM, supplemented with heat inactivated 5% FBS; penicillin 100 U/ml; streptomycin 100 μg/ml). They were then rinsed several times with the complete medium and incubated for 2 days at 37° C. in a humidified 5% CO2/95% air incubator for stabilization. The complete medium was replaced with a basal medium (DMEM, supplemented with heat-inactivated 1% FBS, 10 mM HEPES, and penicillin 100 U/ml streptomycin 100 μg/ml). Approximately 30 mg cartilage pieces (2×3×0.35 mm/piece) were placed in 48-well plates and treated with given concentrations of test agents. After pretreatment for 1 h, 5 ng/ml of rhIL-1α was added to the culture medium and further incubated at 37° C. in a humidified 5% CO2/95% air incubator. The culture medium was collected 24 h later and stored at −80° C. until assay.
The amount of sulphated GAGs in the medium at the end of the reaction, reflecting the amount of articular cartilage degradation, was determined through 1,9-dimethy-methylene blue method using commercially available kit (the Blyscan proteoglycan and glycosaminoglycan assay) according to the instructions of the manufacturer. Diclofenac was utilized as a positive control at 300 μg/ml.
Dose curves of Alpinia, Pepper, Magnolia, and Kochia plant extracts were tested on the ex vivo glycosaminoglycan (GAG) release assay as illustrated in previous example to assess their cartilage protection effects. Cartilage explants were pre-treated with each extract before being exposed to IL-1α, which caused degradation and the release of GAGs from the cartilage matrix.

[4] = 100 mg/kg oral, 1 hr after treatment
[5] = 100 mg/kg oral, 3 hr after treatment
[6] = 100 mg/kg oral, 5 hr after treatment
[7] = 150 mg/kg oral, 1 hr after treatment
[8] = 150 mg/kg oral, 3 hr after treatment
[9] = 150 mg/kg oral, 5 hr after treatment
[10] = hot plate 53° C., topical, vehicle V1 (DMSO+PG+Aloe 2%), dose (%): Ibuprofen 5, Capsaicin 0.5, Diclofenac 1, others 5
[11] = vs vehicle V1, dose (%): Ibuprofen 5, Capsaicin 0.5, Diclofenac 1, others 5

## CC(C)Cc1ccc(C(C)C(=O)O)cc1 (stereo not drawn) [Ibuprofen]
[1]; [4]
  Anti-pain Percent change vs vehicle: 50.51% and 48.44% and 50.5%
[1]; [5]
  Anti-pain Percent change vs vehicle: 46.37% and 47.46% and 46.1%
[1]; [6]
  Anti-pain Percent change vs vehicle: 37.42% and 37.77% and 38.5%
[1]; 150 mg/kg oral, 1 hr
  Pain sensitivity, Average: 25.02
[1]; [7]
  Anti-pain Percent change vs vehicle: 46.49% and 50.51% and 44.4%
[1]; 150 mg/kg oral, 3 hr
  Pain sensitivity, Average: 35.67
[1]; [8]
  Anti-pain Percent change vs vehicle: 45.85% and 46.37% and 47.9%
[1]; 150 mg/kg oral, 5 hr
  Pain sensitivity, Average: 45.49
[1]; [9]
  Anti-pain Percent change vs vehicle: 33.55% and 37.42% and 30.8%
Sprague Dawley rats; [10]
  Paw withdrawal threshold (latency) Mean ± SD: 8.73 ± 1.37
Sprague Dawley rats; hot plate 53° C., topical, vehicle V2 (DMSO+OIL+PG), run 2, dose 5%
  Paw withdrawal threshold (latency) Mean ± SD: 6.05 ± 1.98
Sprague Dawley rats; topical, hot plate 53° C.
  increase in paw withdrawal latency as compared to vehicle: 22.4%
Sprague Dawley rats; [11]
  % Change: −22.4%
Sprague Dawley rats; vs vehicle V2 run 2, dose 5%
  % Change: −23.98%
[2]; [4]
  Anti-inflammation Percent change vs vehicle: 50.07% and 45.00% and 51.0%
[2]; [5]
  Anti-inflammation Percent change vs vehicle: 47.40% and 50.31% and 48.0%
[2]; [6]
  Anti-inflammation Percent change vs vehicle: 37.28% and 41.84% and 39.0%
[2]; 150 mg/kg oral, 1 hr
  Paw edema, Average: 1.43
[2]; [7]
  Anti-inflammation Percent change vs vehicle: 43.03% and 49.50% and 47.3%
[2]; 150 mg/kg oral, 3 hr
  Paw edema, Average: 1.59
[2]; [8]
  Anti-inflammation Percent change vs vehicle: 48.38% and 48.62% and 49.7%
[2]; 150 mg/kg oral, 5 hr
  Paw edema, Average: 1.77
[2]; [9]
  Anti-inflammation Percent change vs vehicle: 36.79% and 37.66% and 37.6%

## CC1CCC(C(C)C)C(O)C1 (stereo not drawn) [Menthol]
Sprague Dawley rats; [10]
  Paw withdrawal threshold (latency) Mean ± SD: 6.05 ± 1.70
Sprague Dawley rats; [11]
  % Change: 15.1%

## COc1cc(CNC(=O)CCCC/C=C/C(C)C)ccc1O [Capsaicin]
Sprague Dawley rats; [10]
  Paw withdrawal threshold (latency) Mean ± SD: 4.51 ± 1.12
Sprague Dawley rats; topical, hot plate 53° C.
  decrease in paw withdrawal latency compared to vehicle: 36.7%
Sprague Dawley rats; [11]
  % Change: 36.7%

## CC(=O)OC/C=C/c1ccc(OC(C)=O)cc1 [p-coumaryl diacetate]
[3]; Oryctolagus cuniculus
  inhibition at 25 µg/mL: 111%
  inhibition at 100 µg/mL: 138%

## C=CCc1ccc(O)c(-c2ccc(O)c(CC=C)c2)c1 [Honokiol]
[3]; Oryctolagus cuniculus, 10 μg/ml
  inhibition at 10 µg/mL: 104%
[3]; Oryctolagus cuniculus, 50 μg/ml
  inhibition at 50 µg/mL: 119%

## C=C[C@H](OC(C)=O)c1ccc(OC(C)=O)cc1 [1′-acetoxychavicol acetate]
[3]; Oryctolagus cuniculus
  inhibition at 25 µg/mL: 99%
  inhibition at 100 µg/mL: 109%

## Piperine
[3]; 50 μg/ml
  Inhibition of GAG release: 98%
Sprague Dawley rats; hot plate 53° C., topical, vehicle V2 (DMSO+OIL+PG), run 1, dose 5%
  Paw withdrawal threshold (latency) Mean ± SD: 7.97 ± 1.86
Sprague Dawley rats; topical, hot plate 53° C.
  increase in paw withdrawal latency as compared to vehicle: 32.6%
Sprague Dawley rats; vs vehicle V2 run 1, dose 5%
  % Change: −32.6%

## C=CCc1ccc(O)c(-c2cc(CC=C)ccc2O)c1 [Magnolol]
[3]; 10 μg/ml
  Inhibition of GAG release: 97%
[3]; 50 μg/ml
  Inhibition of GAG release: 97%

## CC1(C)CCC2(C(=O)O)CCC3(C)C(=CCC4C5(C)CCC(OC6OC(C(=O)O)C(O)C(OC7OCC(O)C(O)C7O)C6O)C(C)(C)C5CCC43C)C2C1 (stereo not drawn) [Momordin lc]
[3]; Oryctolagus cuniculus
  inhibition at 25 µg/mL: 84%
  inhibition at 100 µg/mL: 83%
